According to ChEMBL document CHEMBL1201862, “PubChem BioAssay data set” (2004):
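Five compound concentrations were applied to cells in 96-well plates for 48 hours; endpoints were derived by simple linear interpolation of the resulting dose-response curve. GI50 marks 50% less growth.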 Calls of active or inactive are those of the source. Cut-off read from the data, not from the text of the source: active = GI50 up to about 1.1 µM and inactive = higher.

Key:
Experiment in all cases: NCI tumour cell line growth inhibition, 48 h
UACC-257 = test system: UACC-257
786-0 = test system: 786-0
HT-29 = test system: HT-29
T47D = test system: T47D
NCI-H23 = test system: NCI-H23
OVCAR-8 = test system: OVCAR-8
SF-268 = test system: SF-268
SF-539 = test system: SF-539
EKVX = test system: EKVX
SF-295 = test system: SF-295
LOX IMVI = test system: LOX IMVI
U-251 = test system: U-251
RXF 393 = test system: RXF 393
NCI-H460 = test system: NCI-H460
NCI-H522 = test system: NCI-H522
Malme-3M = test system: Malme-3M
Hs-578T = test system: Hs-578T
SN12C = test system: SN12C
SK-OV-3 = test system: SK-OV-3
K562 = test system: K562

Structure (SMILES)	GI50 (UACC-257)	GI50 (786-0)	GI50 (HT-29)	GI50 (T47D)	GI50 (NCI-H23)	GI50 (OVCAR-8)	GI50 (SF-268)	GI50 (SF-539)	GI50 (EKVX)	GI50 (SF-295)	GI50 (LOX IMVI)	GI50 (U-251)	GI50 (RXF 393)	GI50 (NCI-H460)	GI50 (NCI-H522)	GI50 (Malme-3M)	GI50 (Hs-578T)	GI50 (SN12C)	GI50 (SK-OV-3)	GI50 (K562)
N#Cc1nc(C#N)n(S(=O)(=O)c2ccccc2)c1NS(=O)(=O)c1ccccc1	> 100 µM (inactive)	> 100 µM (inactive)	> 100 µM (inactive)	> 100 µM (inactive)	> 100 µM (inactive)	> 100 µM (inactive)	> 100 µM (inactive)	> 100 µM (inactive)	> 53.2 µM (inactive)	> 100 µM (inactive)	> 100 µM (inactive)	> 100 µM (inactive)	> 100 µM (inactive)	> 100 µM (inactive)	> 100 µM (inactive)	> 100 µM (inactive)	> 100 µM (inactive)	> 100 µM (inactive)	> 100 µM (inactive)	> 100 µM (inactive)
O=C1CC2(CCNCC2)C(=O)N1N1CCOCC1	> 100 µM (inactive)	> 100 µM (inactive)	> 100 µM (inactive)	> 100 µM (inactive)	> 100 µM (inactive)	> 100 µM (inactive)	> 100 µM (inactive)	> 100 µM (inactive)	> 100 µM (inactive)	> 100 µM (inactive)	> 100 µM (inactive)	> 100 µM (inactive)	> 100 µM (inactive)	> 100 µM (inactive)	> 100 µM (inactive)	> 100 µM (inactive)	> 100 µM (inactive)	> 100 µM (inactive)	> 100 µM (inactive)	> 100 µM (inactive)
CC(C)(C)c1ccc(O)c(CN(Cc2c(O)ccc3ccccc23)C2CCCCC2)c1	15.7 µM (inactive)	15.5 µM (inactive)	16 µM (inactive)	17.9 µM (inactive)	16.4 µM (inactive)	15.2 µM (inactive)	16.1 µM (inactive)	16.4 µM (inactive)	15.8 µM (inactive)	18.3 µM (inactive)	10.4 µM (inactive)	16 µM (inactive)	17.5 µM (inactive)	15.8 µM (inactive)	14.8 µM (inactive)	17.4 µM (inactive)	27.4 µM (inactive)	17.3 µM (inactive)	24.9 µM (inactive)	16.9 µM (inactive)
CC1(C)CC[C@]2(C(=O)O)CC[C@]3(C)[C@H](C(=O)C=C4[C@@]5(C)C=C(C#N)C(=O)C(C)(C)[C@@H]5CC[C@]43C)[C@@H]2C1 [BARDOXOLONE]	1.14 µM (inactive)	0.16 µM (active)	0.495 µM (active)	0.414 µM (active)	0.174 µM (active)	0.577 µM (active)	0.659 µM (active)	0.569 µM (active)	1.34 µM (inactive)	0.573 µM (active)	0.0944 µM (active)	0.274 µM (active)	0.0995 µM (active)	0.486 µM (active)	0.923 µM (active)	0.224 µM (active)	0.671 µM (active)	0.493 µM (active)	0.875 µM (active)	0.263 µM (active)
Cc1cc(Cl)ccc1Nc1sc(C(=O)c2cc3cc(Cl)ccc3o2)c(N)c1C#N	> 61.7 µM (inactive)	3.83 µM (inactive)	8.67 µM (inactive)	16.6 µM (inactive)	7.41 µM (inactive)	11.4 µM (inactive)	5.3 µM (inactive)	6.53 µM (inactive)	17.9 µM (inactive)	4.76 µM (inactive)	> 100 µM (inactive)	4.14 µM (inactive)	27.7 µM (inactive)	5.96 µM (inactive)	3.42 µM (inactive)	80.5 µM (inactive)	> 100 µM (inactive)	11.9 µM (inactive)	14.7 µM (inactive)	18.7 µM (inactive)
Cc1ccc(S(=O)(=O)NN=C2C(C)(C)CC2(C)C)cc1	> 100 µM (inactive)	> 100 µM (inactive)	> 100 µM (inactive)	> 100 µM (inactive)	> 100 µM (inactive)	> 100 µM (inactive)	> 100 µM (inactive)	> 100 µM (inactive)	> 100 µM (inactive)	> 100 µM (inactive)	> 100 µM (inactive)	> 100 µM (inactive)	> 100 µM (inactive)	> 100 µM (inactive)	> 100 µM (inactive)	> 100 µM (inactive)	> 100 µM (inactive)	> 100 µM (inactive)	> 100 µM (inactive)	76.2 µM (inactive)
